Results as given in paper PMC7730549, “Design, Synthesis and Evaluation of New Bioactive Oxadiazole Derivatives as Anticancer Agents Targeting Bcl-2” (International Journal of Molecular Sciences, 2020).

Experiments:
KG1a (AML) cells = experiment: CellTiter-Blue cell viability assay, KG1a; format: cell-based, human; conditions: CellTitre-Blue assay, 24 h incubation, Bcl-2 +ve, mean of three independent experiments ±SEM
Description: (§1) Evaluation of anti-proliferative activity for the new 2-(1H-indol-3-yl)-5-substituted-1,3,4-oxadiazoles (4a–m) was carried out in Bcl-2-expressing human metastatic breast (MDA-MB-231) and cervical (HeLa) cancer cell lines, using the MTT endpoint assay, following 72 h incubation of test compound, according to previously established protocols. Further analysis within the non-adherent leukemic cell lines KG1a (acute myelogenous leukemia, Bcl-2 +ve) and Jurkat (T-cell leukemia, Bcl-2 −ve,) was carried out by using the CellTiter-Blue® assay according to published precedent.
(§2) Human acute myeloid leukemia KG1a and acute T-cell lymphocytic Jurkat cells were cultured and maintained as previously described. For each experiment 15,000 cells in 0.1 mL of medium were seeded into each well of a solid-black fluorescence 96-well plate and incubated for 24 h. The cells were then incubated with test compound (from 10 mM stock in DMSO), over a 10-fold dilution series, with concentrations ranging from 0.00001 to 100 μM and each diluent being performed in triplicate. Cells were incubated with test compound for 24 h, followed by treatment with CellTiter-Blue® solution and reading of fluorescence according to our previous protocol. Mean IC50 values were obtained by using GraphPad Prism 5 software (San Diego, CA, USA). For each concentration, three independent repeat experiments were carried out, to establish reproducibility.

[1] = tested on: MDA-MB-231 (metastatic breast) cells; experiment: MTT anti-proliferative assay, MDA-MB-231; format: cell-based, human; conditions: Bcl-2 expressing, mean of three independent experiments ±SEM
Description: as §1
(§3) Human breast cancer (MDA-MB-231) and cervical cancer (HeLa) cells, obtained from the ATCC (Manassas, VA, USA), were cultured and maintained as previously described. For each experiment, 3000 cells in 0.2 mL of medium were seeded into each well of a clear flat-bottomed 96-well plate and allowed to adhere for 24 h. The cells were then incubated with the test compound (from 10 mM stock in DMSO), over a 10-fold dilution series, with concentrations ranging from 0.00001 to 100 μM and each diluent being performed in triplicate. Cells were incubated with the test compound for 72 h, followed by treatment with 3-[4,5-dimethylthiazol-2-yl]-2,5-diphenyl tetrazolium bromide (MTT) solution and reading of absorbance (automated microplate) according to our previous protocol. Mean IC50 values were obtained by using GraphPad Prism 5 software (San Diego, CA, USA). For each concentration, three independent repeat experiments were carried out to establish reproducibility.

[2] = tested on: Jurkat (T-cell leukemia) cells; experiment: CellTiter-Blue cell viability assay, Jurkat; format: cell-based, human; conditions: for IC50: CellTitre-Blue assay, 24 h incubation, Bcl-2 −ve, mean of three independent experiments ±SEM
Description: as §1, §2

His-tagged Bcl-2 protein = His-tagged Bcl-2 protein (Homo sapiens, UniProt P10415); experiment: Competitive Bcl-2 ELISA binding assay (Bim peptide / His-tagged Bcl-2); conditions: for IC50: competition with biotinylated Bim peptide for His-tagged Bcl-2, mean ± SEM of three independent experiments; for Bcl-2 binding activity in the ELISA assay: competitive ELISA, Bim peptide
His-tagged Bcl-2 protein, sequence (P10415 whole entry, the tested form may be a part): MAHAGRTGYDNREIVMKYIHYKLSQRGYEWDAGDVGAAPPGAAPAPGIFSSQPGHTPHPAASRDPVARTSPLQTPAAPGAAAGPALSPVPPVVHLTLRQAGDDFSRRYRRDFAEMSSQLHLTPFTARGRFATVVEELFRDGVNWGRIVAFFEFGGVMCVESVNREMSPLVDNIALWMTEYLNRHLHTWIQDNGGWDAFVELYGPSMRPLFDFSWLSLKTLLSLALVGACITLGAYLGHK
Description: Compounds were evaluated according to their ability to compete with the pro-apoptotic BH3 domain Bim peptide for binding to His-tagged Bcl-2 protein, with a readout from anti-His secondary antibody conjugated to HRP (horseradish peroxidase) enzyme that produces a colorimetric readout in the presence of o-phenylenediamine (competitive ELISA assay).
The ELISA assay to determine the ability of test compounds (10-fold dilution series) to compete with the interaction between biotinylated Bim peptide and His-tagged Bcl-2 protein was carried out according to our previously published protocol. The addition of anti-His antibody containing horseradish peroxidase enzyme, followed by the addition of o-phenylenediamine and hydrogen peroxide, allowed for the determination of optical density, using a plate reader (450 nm). The experiments were carried out on three separate occasions, including both negative and positive controls. A plot of log μM concentration for each inhibitor against the percentage reduction in affinity for the Bim peptide was created, using non-linear regression curve analysis (GraphPad Prism 5, San Diego, CA, USA) and the software used to generate the IC50 value for the Bcl-2 inhibitor.

HeLa (cervical) cells = experiment: MTT anti-proliferative assay, HeLa; format: cell-based, human; conditions: 72 h incubation, Bcl-2 expressing, mean of three independent experiments ±SEM
Description: as §1, §3

[3] = tested on: Bcl-2 expressing cell lines (MDA-MB-231, HeLa and KG1a); experiment: Anti-proliferative activity across Bcl-2 expressing cell lines (MDA-MB-231, HeLa, KG1a); format: cell-based; conditions: Homo sapiens; MDA-MB-231, HeLa and KG1a taken together; read-out: IC50 values against Bcl-2 expressing cell lines
Description: as §1
Human breast cancer (MDA-MB-231) and cervical cancer (HeLa) cells, obtained from the ATCC (Manassas, VA, USA), were cultured and maintained as previously described. […] Cells were incubated with the test compound for 72 h, followed by treatment with 3-[4,5-dimethylthiazol-2-yl]-2,5-diphenyl tetrazolium bromide (MTT) solution and reading of absorbance (automated microplate) according to our previous protocol. […]
Human acute myeloid leukemia KG1a and acute T-cell lymphocytic Jurkat cells were cultured and maintained as previously described. For each experiment 15,000 cells in 0.1 mL of medium were seeded into each well of a solid-black fluorescence 96-well plate and incubated for 24 h. […]

[4] = Homo sapiens, MDA-MB-231, 72 h incubation

Molecule	IC50 ([1]; 72 h incubation) [nM]	IC50 [2] [nM]	IC50 (His-tagged Bcl-2 protein) [nM]	IC50 (HeLa (cervical) cells) [nM]	IC50 [1, 4] [nM]	IC50 ([2]; Homo sapiens, Jurkat) [nM]	melting point [°C]	IC50 (HeLa (cervical) cells; Homo sapiens, HeLa) [nM]	Bcl-2 binding activity in the ELISA assay (His-tagged Bcl-2 protein)	IC50 [3] [nM]	binding potency relative to positive control gossypol (His-tagged Bcl-2 protein; Bcl-2 ELISA binding affinity assay)	IC50 (KG1a (AML) cells) [nM]	IC50 (KG1a (AML) cells; Homo sapiens, KG-1a) [nM]	inhibitory effect in the Bcl-2 negative cell line ([2]; Jurkat, Bcl-2 negative)
2-(1H-Indol-3-yl)-5-(5-methoxy-1H-indol-2-yl)-1,3,4-oxadiazole [Compound 4m]	1790 ± 70	57400 ± 580	840 ± 50	1190 ± 400								1870 ± 140		
Fc1ccc(OCc2nnc(-c3c[nH]c4ccccc34)o2)cc1 [Compound 4a, 2-(1H-Indol-3-yl)-5-(4-fluorophenoxymethyl)-1,3,4-oxadiazole]					36100 ± 3400	> 100000	210 to 212	12900 ± 1330					> 100000	
Cc1ccc(OCc2nnc(-c3c[nH]c4ccccc34)o2)cc1 [Compound 4b, 2-(1H-Indol-3-yl)-5-(4-methylphenoxymethyl)-1,3,4-oxadiazole]			> 100000		31500 ± 4800	> 100000	201 to 203	13300 ± 320	inactive				> 100000	
COc1cccc(Cc2nnc(-c3c[nH]c4ccccc34)o2)c1 [Compound 4e, 2-(1H-Indol-3-yl)-5-(3-methoxybenzyl)-1,3,4-oxadiazole]			2720 ± 200		6280 ± 200	> 100000	208 to 210	3140 ± 140					3660 ± 150	
c1ccc(Cc2nnc(-c3c[nH]c4ccccc34)o2)cc1 [Compound 4f, 2-(1H-Indol-3-yl)-5-benzyl-1,3,4-oxadiazole]					> 100000	> 100000	187 to 189	> 100000					> 100000	
O=[N+]([O-])c1ccc(-c2nnc(-c3c[nH]c4ccccc34)o2)cc1 [Compound 4g, 2-(1H-Indol-3-yl)-5-(4-nitrophenyl)-1,3,4-oxadiazole]					6950 ± 500	> 100000	215 to 217	1600 ± 120					> 100000	

Second part, led by results:

IC50 ([1]; 72 h incubation) [nM]	IC50 [2] [nM]	IC50 (His-tagged Bcl-2 protein) [nM]	IC50 (HeLa (cervical) cells) [nM]	IC50 [1, 4] [nM]	IC50 ([2]; Homo sapiens, Jurkat) [nM]	melting point [°C]	IC50 (HeLa (cervical) cells; Homo sapiens, HeLa) [nM]	Bcl-2 binding activity in the ELISA assay (His-tagged Bcl-2 protein)	IC50 [3] [nM]	binding potency relative to positive control gossypol (His-tagged Bcl-2 protein; Bcl-2 ELISA binding affinity assay)	Molecule	IC50 (KG1a (AML) cells) [nM]	IC50 (KG1a (AML) cells; Homo sapiens, KG-1a) [nM]	inhibitory effect in the Bcl-2 negative cell line ([2]; Jurkat, Bcl-2 negative)
		1170 ± 130		3500 ± 160	> 100000	218 to 220	900 ± 30				CC(C)(C)c1ccc(OCc2nnc(-c3c[nH]c4ccccc34)o2)cc1 [Compound 4c, 2-(1H-Indol-3-yl)-5-(4-tert-butylphenoxymethyl)-1,3,4-oxadiazole]		3450 ± 800	
		1410 ± 10		1630 ± 80	> 100000	195 to 197	570 ± 40				c1ccc(OCc2nnc(-c3c[nH]c4ccccc34)o2)cc1 [Compound 4d, 2-(1H-Indol-3-yl)-5-(phenoxymethyl)-1,3,4-oxadiazole]		2560 ± 70	
				6020 ± 120	60590 ± 120	210 to 212	920 ± 80				COc1ccc(-c2nnc(-c3c[nH]c4ccccc34)o2)cc1 [Compound 4h, 2-(1H-Indol-3-yl)-5-(4-methoxyphenyl)-1,3,4-oxadiazole]		2210 ± 100	
		21000 ± 1090		1190 ± 100	12200 ± 1130	221 to 222	1220 ± 900	only moderate Bcl-2 binding activity			COc1cc(-c2nnc(-c3c[nH]c4ccccc34)o2)cc(OC)c1OC [Compound 4i, 2-(1H-Indol-3-yl)-5-(3,4,5-trimethoxyphenyl)-1,3,4-oxadiazole]		975 ± 20	
		330 ± 50		520 ± 150	> 100000	224 to 226	880 ± 160		520 to 880	two-fold more potent	FC(F)(F)c1ccc(-c2nnc(-c3c[nH]c4ccccc34)o2)cc1 [Compound 4j, 2-(1H-Indol-3-yl)-5-(4-trifluoromethylphenyl)-1,3,4-oxadiazole]		730 ± 90	no inhibitory effects
		430 ± 50		920 ± 190	> 100000	198 to 200	1280 ± 350				Cc1ccc(-c2nnc(-c3c[nH]c4ccccc34)o2)cc1 [Compound 4k, 2-(1H-Indol-3-yl)-5-(4-methylphenyl)-1,3,4-oxadiazole]		1470 ± 130	
				2970 ± 60	61400 ± 1400	240 to 242	1520 ± 30				c1ccc2c(-c3nnc(-c4ccc(N5CCCCC5)nc4)o3)c[nH]c2c1 [Compound 4l, 2-(1H-Indol-3-yl)-5-(6-(piperidin-1-yl)-pyridin-3-yl)-1,3,4-oxadiazole]		4500 ± 310	
